Data set [1] is described as follows: Stability study on storage (25° C. ± 2° C./60% ± 5% RH) for 3 months.
Method: The complete x-ray powder spectrum, which was recorded with a Rigaku multifelx 2.0 Kilowatt X-ray powder diffractometer model using copper radiation. The X-ray diffraction pattern was recorded by keeping the instrument parameters listed below:
i) X-ray: Cu/40 kv/30 mA, Diverging slit: 1°, Scattering slit: 1°, Receiving slit: 0.15 mm, Monochromator RS: 0.8 mm, Counter: Scintillation counters;
Scan mode: Continuous, Scan speed: 4.000 deg./min., Sampling width: 0.010°,
Scan axes: 2 theta vs CPS, Scan range: 4° to 40.0°, Theta offset: 0.000.
iv) (2R)-4-oxo-4-[3-(trifluoromethyl)-5,6-dihydro[1,2,4]-triazolo[4,3-a]pyrazin-7(8H)-yl]-1-(2,4,5-trifluorophenyl)butan-2-amine and its salts were analyzed for purity by analytical HPLC at λmax 210 nm using column YMC-C8, 250 mm×4.6 mm×4 mm or its equivalent on AGILENT 1100 series under the following conditions, Detector: UV absorption photometer Wave length: 210 nm Column temp.: 25° C. Flow rate: 1.0 mL/min. Injection Vol.: 10 μL Mobile Phase: 10 mM KH2PO4 (pH-6.8): Acetonitrile (55:45) (2R)-4-oxo-4-[3-(trifluoromethyl)-5,6-dihydro[1,2,4]-triazolo[4,3-a]pyrazin-7(8H)-yl]-1-(2,4,5-trifluorophenyl)butan-2-amine and its salts were analyzed for chiral purity by HPLC at λmax 268 nm using column Chiral-Cel OJ-H, 250 mm×4.6 mm×5μ or its equivalent on Shimadzu LCVP model under the following conditions, Detector: UV absorption photometer Wave length: 268 nm Column temp.: 35° C. Flow rate: 0.8 mL/min.
For data set [2], the system named is male C57BLKS/J mice. The data set is described as follows: Oral glucose tolerance test (OGTT) in male C57 mice. It is filed as in vivo. The settings on record: for % change in AUC glucose: single dose 10 mg/kg PO with glucose load 3 g/kg, male C57 mice fasted 18 h, AUC for 120 min, vs vehicle control; for efficacy compared with crystalline monohydrate phosphate salt (SP): acute oral glucose tolerance test in C57 mice, 10 mg/kg PO. As to the method: Eight to ten weeks old male C57BLKS/J mice obtained from Animal Research Facility of Zydus Research Centre were used. The mice were allowed ad libitum access to chow and water. Animals were on a 12-hour light, 12-hour dark cycle. Protocol for use of animals for conducting this study has been reviewed and approved by Institutional Animal Ethics Committee (IAEC).
Oral glucose tolerance test (OGTT) was performed on these animals. The mice were deprived of food for 18 h and then drug or vehicles were administered with a glucose load (3 g/kg) by oral route. Blood (200 μL) samples were collected at 0, 30, 60, 120 and 240 min. Serum glucose concentrations were determined using commercially available kits purchased from RFCL (New Delhi, India) using spectrophotometric assay. […] The area under the curve for 120 min was calculated, based on which the percentage inhibition was obtained for each treatment.

Data set [3] can be described thus: Stability of the novel salts versus free base (statement, no method given). It is filed as physicochemical. The settings on record: compared with the free base; no conditions given.
The mark [4] stands for this setting: After 3 Month storage at 25° C. ± 2° C./60% ± 5% RH.
[5] abbreviates: After 3 Month storage at 25° C. ± 2° C./60% ± 5% RH, listed as besylate crystalline(II).
Where [6] appears, read: Initial, listed as besylate crystalline(II).
Where [7] appears, read: After 3 Month storage at 25° C. ± 2° C./60% ± 5% RH, listed as besylate amorphous.
Setting [8] is: Initial, listed as besylate amorphous.

As to `Cl.N[C@@H](CC(=O)N1CCn2c(nnc2C(F)(F)F)C1)Cc1cc(F)c(F)cc1F` [Hydrochloride crystalline, hydrochloride salt of (2R)-4-oxo-4-[3-(trifluoromethyl)-5,6-dihydro[1,2,4]triazolo[4,3-a]pyrazin-7(8H)-yl]-1-(2,4,5-trifluorophenyl)butan-2-amine], in data set [1] (setting [4]), the Description entry is recorded as “white colored powder”, the “Polymorphism XRD” value is “No Change”, the “Purity (By HPLC)” value was found to be 99.91% and the “Water (by KFR)” value was determined as 4.01%. Also, in data set [1] (Initial), the Description result is “white colored powder”, the “Polymorphism XRD” value is “Crystalline pattern”, the “Purity (By HPLC)” value is 99.82% and the “Water (by KFR)” value came out at 3.54%.
For `N[C@@H](CC(=O)N1CCn2c(nnc2C(F)(F)F)C1)Cc1cc(F)c(F)cc1F` [SB, (2R)-4-oxo-4-[3-(trifluoromethyl)-5,6-dihydro[1,2,4]triazolo[4,3-a]pyrazin-7(8H)-yl]-1-(2,4,5-trifluorophenyl)butan-2-amine, reference compound], in data set [2], the “% change in AUC glucose” value is −36.5 ± 1.6%.
As for `N[C@@H](CC(=O)N1CCn2c(nnc2C(F)(F)F)C1)Cc1cc(F)c(F)cc1F.O=S(=O)(O)c1ccccc1` [SBII, crystalline besylate salt(II) of (2R)-4-oxo-4-[3-(trifluoromethyl)-5,6-dihydro[1,2,4]triazolo[4,3-a]pyrazin-7(8H)-yl]-1-(2,4,5-trifluorophenyl)butan-2-amine], the “efficacy compared with crystalline monohydrate phosphate salt (SP)” value in data set [2] is “better than”. The “% change in AUC glucose” value in data set [2] (10 mg/kg) is recorded as −45.7 ± 1.5%. Moreover, the “Polymorphism XRD” value in data set [1] (setting [4]) is “No Change”. Besides, in data set [1] (setting [5]), the Description result is “Off white colored”, the “Purity (By HPLC)” value is listed as 99.97% and the “Water (by KFR)” value turned out to be 2.90%. In addition, the Description result in data set [1] (Initial) is given as “white colored powder”. Moreover, in data set [1] (setting [6]), the “Polymorphism XRD” value is reported as “Crystalline pattern”, the “Purity (By HPLC)” value was 99.87% and the “Water (by KFR)” value was found to be 2.77%.
Regarding `N[C@@H](CC(=O)N1CCn2c(nnc2C(F)(F)F)C1)Cc1cc(F)c(F)cc1F.O=S(=O)(O)c1ccccc1` [SBa, amorphous besylate salt of (2R)-4-oxo-4-[3-(trifluoromethyl)-5,6-dihydro[1,2,4]triazolo[4,3-a]pyrazin-7(8H)-yl]-1-(2,4,5-trifluorophenyl)butan-2-amine], in data set [2], the “efficacy compared with crystalline monohydrate phosphate salt (SP)” value is “better than”. For the same molecule, the “% change in AUC glucose” value in data set [2] (10 mg/kg) is reported as −43.3 ± 1.6%. For the same molecule, the “Polymorphism XRD” value in data set [1] (setting [4]) is on record as “No Change”. In data set [1] (setting [7]), the Description entry is recorded as “white colored powder”, the “Purity (By HPLC)” value came out at 99.52% and the “Water (by KFR)” value is given as 3.14%. Also, the Description result in data set [1] (Initial) is listed as “white colored powder”. Further, in data set [1] (setting [8]), the “Polymorphism XRD” value is “amorphous pattern”, the “Purity (By HPLC)” value is given as 99.41% and the “Water (by KFR)” value is on record as 1.01%.
With `N[C@@H](CC(=O)N1CCn2c(nnc2C(F)(F)F)C1)Cc1cc(F)c(F)cc1F.O=P(O)(O)O` [SP, (2R)-4-oxo-4-[3-(trifluoromethyl)-5,6-dihydro[1,2,4]triazolo[4,3-a]pyrazin-7(8H)-yl]-1-(2,4,5-trifluorophenyl)butan-2-amine phosphate salt, reference compound], in data set [2], the “% change in AUC glucose” value is reported as −31.9 ± 1.8%.
Consider `N[C@@H](CC(=O)N1CCn2c(nnc2C(F)(F)F)C1)Cc1cc(F)c(F)cc1F.O=C(O)C(F)(F)F` [TFA salt, Trifluoroacetic acid salt of (2R)-4-oxo-4-[3-(trifluoromethyl)-5,6-dihydro[1,2,4]triazolo[4,3-a]pyrazin-7(8H)-yl]-1-(2,4,5-trifluorophenyl)butan-2-amine], for which, in data set [1] (setting [4]), the Description entry is listed as “white colored powder”, the “Polymorphism XRD” value is given as “No Change”, the “Purity (By HPLC)” value is 97.5% and the “Water (by KFR)” value turned out to be 3.45%. Moreover, in data set [1] (Initial), the Description result is recorded as “white colored powder”, the “Polymorphism XRD” value is “Crystalline pattern”, the “Purity (By HPLC)” value is given as 97.89% and the “Water (by KFR)” value came to 2.77%.
Regarding `N[C@@H](CC(=O)N1CCn2c(nnc2C(F)(F)F)C1)Cc1cc(F)c(F)cc1F.O=C(O)CCCCC(=O)O` [adipate, adipic acid salt of (2R)-4-oxo-4-[3-(trifluoromethyl)-5,6-dihydro[1,2,4]triazolo[4,3-a]pyrazin-7(8H)-yl]-1-(2,4,5-trifluorophenyl)butan-2-amine], the “stability of the salt” value in data set [3] is “very stable”.
As to “(2R)-4-oxo-4-[3-(trifluoromethyl)-5,6-dihydro[1,2,4]triazolo[4,3-a]pyrazin-7(8H)-yl]-1-(2,4,5-trifluorophenyl)butan-2-amine gentisate [SG]”, in data set [3], the “stability of the salt” value is “very stable”. For the same molecule, in data set [2], the “efficacy compared with crystalline monohydrate phosphate salt (SP)” value was “better than” and the “% change in AUC glucose” value was −39.4 ± 1.8%.

The values above are taken from patent US9108972B2, “Salts of DPP-IV inhibitor” (Cadila Healthcare Limited, priority 2011, dated 2015).
